Several values for one entry are separate records, joined by “and”; a condition that tells them apart may be missing. Identical values can stand only once.
How the values were obtained:
Type in all cases: physicochemical
[1] = Compatibility/stability of oleoyl-estrone in oil systems (appearance/color, potency, related substances); conditions: for Purity Assay / Mean Purity Assay: in SAFFLOWER
Procedure: The compatibility of oleoyl-estrone in various oil systems was also assessed. The respective stability of oleoyl-estrone in various oils was assessed following storage at (A) 25° C./60% and relative humidity (RH), (B) 40° C./75% RH, (C) 50° C. and (D) 60° C. in canola oil, safflower oil, Captex and a 2:1 Captex: Labrafil mixture. The stability test methods include appearance/color, potency, and related substances (e.g. impurities or degradant in the oleoyl-estrone and oil mixture).

[2] = Oil evaluation: solubility behavior of oleoyl-estrone, 200 mg/g in single oils
Procedure: An oil evaluation was done to determine the solubility behavior of oleoyl-estrone as a function of type of oil, concentration and temperature. The solubility of oleoyl-estrone was evaluated at concentrations of 60 mg/g and 200 mg/g. […]

[3] = Solubility of oleoyl-estrone in binary oil blends, 200 mg/g at room temperature
Procedure: These four types of oils were then evaluated in binary blend systems with an oleoyl-estrone concentration of 200 mg/g at room temperature for 24 hours and 96 hours.

[4] = in the mixture of Captex and Labrafil stored at 50° C. and 60° C., three weeks
[5] = 200 mg/g in Captex 300-6C at 40° C.
[6] = 200 mg/g in Captex 300 EP at 40° C.
[7] = 200 mg/g in Labrafil 1944 CS at 40° C.
[8] = 200 mg/g in Safflower at 40° C.
[9] = 200 mg/g in Canola:Labrafil (2:1) at RT (about 22° C.)
[10] = 200 mg/g in Captex 300 EP:Labrafil (2:1) at RT (about 22° C.)
[11] = 200 mg/g in Safflower:Labrafil (2:1) at RT (about 22° C.)

- Purity Assay ([1]; One Week 25° C./60% RH): 99.4% and 98.7%
- Mean Purity Assay ([1]; One Week 40° C./75% RH): 100.9%
- Purity Assay ([1]; One Week 40° C./75% RH): 102.6% and 99.2%
- Mean Purity Assay ([1]; One Week 50° C.): 100.7%
- Purity Assay ([1]; One Week 50° C.): 100.9% and 100.4%
- Mean Purity Assay ([1]; One Week 60° C.): 100.8%
- Purity Assay ([1]; One Week 60° C.): 99.5% and 102.0%
- Mean Purity Assay ([1]; Three Weeks 25° C./60% RH): 105.7%
- Purity Assay ([1]; Three Weeks 25° C./60% RH): 108.1% and 103.3%
- Mean Purity Assay ([1]; Three Weeks 40° C./75% RH): 104.6%
- Purity Assay ([1]; Three Weeks 40° C./75% RH): 102.7% and 106.5%
- Mean Purity Assay ([1]; Three Weeks 50° C.): 98.7%
- Purity Assay ([1]; Three Weeks 50° C.): 101.0% and 96.4%
- Mean Purity Assay ([1]; Three Weeks 60° C.): 105.1%
- Purity Assay ([1]; Three Weeks 60° C.): 103.7% and 106.5%
- Mean Purity Assay ([1]; Time Zero): 103.8%
- Purity Assay ([1]; Time Zero): 102.1% and 104.8% and 104.7% and 103.5%
- Mean Purity Assay ([1]; Two Weeks 25° C./60% RH): 101.6%
- Purity Assay ([1]; Two Weeks 25° C./60% RH): 105.1% and 98.1%
- Mean Purity Assay ([1]; Two Weeks 40° C./75% RH): 100.2%
- Purity Assay ([1]; Two Weeks 40° C./75% RH): 98.1% and 102.3%
- Mean Purity Assay ([1]; Two Weeks 50° C.): 96.7%
- Purity Assay ([1]; Two Weeks 50° C.): 98.3% and 95.1%
- Mean Purity Assay ([1]; Two Weeks 60° C.): 98.1%
- Purity Assay ([1]; Two Weeks 60° C.): 99.2% and 96.9%
- Degradation of oleoyl-estrone ([1]; in canola oil, safflower oil or Captex, three weeks at 25° C./60% RH, 40° C./75% RH, 50° C. and 60° C.): no measurable degradation
- Degradation of oleoyl-estrone [1, 4]: measurable degradation
- Levels of estrone [1, 4]: increased significantly
- Solubility Cycled to 22° C. for 24 hr prior to 5° C. cycle for 96 hr ([2]; 200 mg/g in Canola): Dissolved
- Solubility After 24 hr ([2]; 200 mg/g in Canola at 40° C.): Dissolved
- Solubility After 96 hr ([2]; 200 mg/g in Canola at 40° C.): Dissolved
- Solubility Cycled to 22° C. for 24 hr prior to 5° C. cycle for 96 hr ([2]; 200 mg/g in Captex 300-6C): Dissolved
- Solubility After 24 hr [2, 5]: Dissolved
- Solubility After 96 hr [2, 5]: Dissolved
- Solubility Cycled to 22° C. for 24 hr prior to 5° C. cycle for 96 hr ([2]; 200 mg/g in Captex 300 EP): Dissolved
- Solubility After 24 hr [2, 6]: Dissolved
- Solubility After 96 hr [2, 6]: Dissolved
- Solubility Cycled to 22° C. for 24 hr prior to 5° C. cycle for 96 hr ([2]; 200 mg/g in Corn): Precipitated at 5 °C after 72 hr
- Solubility After 24 hr ([2]; 200 mg/g in Corn at 40° C.): Dissolved
- Solubility After 96 hr ([2]; 200 mg/g in Corn at 40° C.): Dissolved
- Solubility Cycled to 22° C. for 24 hr prior to 5° C. cycle for 96 hr ([2]; 200 mg/g in Labrafac): Precipitated at 5 °C after 4 hr
- Solubility After 24 hr ([2]; 200 mg/g in Labrafac at 40° C.): Dissolved
- Solubility After 96 hr ([2]; 200 mg/g in Labrafac at 40° C.): Dissolved
- Solubility Cycled to 22° C. for 24 hr prior to 5° C. cycle for 96 hr ([2]; 200 mg/g in Labrafil 1944 CS): Precipitated at 5 °C after 4 hr
- Solubility After 24 hr [2, 7]: Dissolved
- Solubility After 96 hr [2, 7]: Dissolved
- Solubility Cycled to 22° C. for 24 hr prior to 5° C. cycle for 96 hr ([2]; 200 mg/g in Labrafil M 125CS): Precipitated at 5 °C after 24 hr
- Solubility After 96 hr ([2]; 200 mg/g in Labrafil M 125CS at 40° C.): Dissolved
- Solubility Cycled to 22° C. for 24 hr prior to 5° C. cycle for 96 hr ([2]; 200 mg/g in Labrasol): Precipitated at RT not tested
- Solubility After 24 hr ([2]; 200 mg/g in Labrasol at 40° C.): Dissolved
- Solubility After 96 hr ([2]; 200 mg/g in Labrasol at 40° C.): Dissolved
- Solubility Cycled to 22° C. for 24 hr prior to 5° C. cycle for 96 hr ([2]; 200 mg/g in Olive): Precipitated at 5 °C after 4 hr
- Solubility After 24 hr ([2]; 200 mg/g in Olive at 40° C.): Dissolved
- Solubility After 96 hr ([2]; 200 mg/g in Olive at 40° C.): Dissolved
- Solubility Cycled to 22° C. for 24 hr prior to 5° C. cycle for 96 hr ([2]; 200 mg/g in Safflower): Dissolved
- Solubility After 24 hr [2, 8]: Dissolved
- Solubility After 96 hr [2, 8]: Dissolved
- Solubility Cycled to 22° C. for 24 hr prior to 5° C. cycle for 96 hr ([2]; 200 mg/g in Sesame): Precipitated at 5 °C after 5 hr
- Solubility After 24 hr ([2]; 200 mg/g in Sesame at 40° C.): Dissolved
- Solubility After 96 hr ([2]; 200 mg/g in Sesame at 40° C.): Dissolved
- Solubility Cycled to 22° C. for 24 hr prior to 5° C. cycle for 96 hr ([2]; 200 mg/g in Soybean): Dissolved
- Solubility After 24 hr ([2]; 200 mg/g in Soybean at 40° C.): Dissolved
- Solubility After 96 hr ([2]; 200 mg/g in Soybean at 40° C.): Dissolved
- Solubility and thermal stability in single oils (summary) ([2]; in safflower oil, soybean oil, canola oil and the medium chain triglycerides): soluble and thermally stable
- Notes (phase separation) [3, 9]: No phase separation
- Solubility After 24 hr [3, 9]: Dissolved
- Solubility After 96 hr [3, 9]: Dissolved
- Notes (phase separation) [3, 10]: No phase separation
- Solubility After 24 hr [3, 10]: Dissolved
- Solubility After 96 hr [3, 10]: Dissolved
- Notes (phase separation) [3, 11]: No phase separation
- Solubility After 24 hr [3, 11]: NOT Dissolved
- Solubility After 96 hr [3, 11]: Dissolved
- Solubility After 24 hr ([3]; 200 mg/g in Soybean:Labrafil (2:1) at RT (about 22° C.)): NOT Dissolved
Compound: CCCCCCCC/C=C\CCCCCCCC(=O)Oc1ccc2c(c1)CC[C@@H]1[C@@H]2CC[C@]2(C)C(=O)CC[C@@H]12 [oleoyl-estrone, [3(Z)]-3-[(1-oxo-9-octadecenyl)oxy]-estra-1,3,5(10)-trien-17-one]

— US20080261936A1, “METHODS OF REDUCING THE BODY WEIGHT OF A SUBJECT BY ADMINISTERING A FATTY ACID ESTER OF AN ESTROGEN OR ESTROGEN DERIVATIVE IN AN OIL AND COMPOSITIONS CONTAINING THE SAME” (Manhattan Pharmaceuticals, Inc., priority 2006, published 2008)
